# Assay results from patent US20210198277A1, “AMINE-SUBSTITUTED ARYL OR HETEROARYL COMPOUNDS” (Epizyme, Inc., priority 2016, published 2021).
# Molecular target: T1, EHMT2 (Homo sapiens, UniProt Q96KQ7)
# T1 construct: host or cells: MDA-MB-231
# T1 sequence (Q96KQ7 1-1210): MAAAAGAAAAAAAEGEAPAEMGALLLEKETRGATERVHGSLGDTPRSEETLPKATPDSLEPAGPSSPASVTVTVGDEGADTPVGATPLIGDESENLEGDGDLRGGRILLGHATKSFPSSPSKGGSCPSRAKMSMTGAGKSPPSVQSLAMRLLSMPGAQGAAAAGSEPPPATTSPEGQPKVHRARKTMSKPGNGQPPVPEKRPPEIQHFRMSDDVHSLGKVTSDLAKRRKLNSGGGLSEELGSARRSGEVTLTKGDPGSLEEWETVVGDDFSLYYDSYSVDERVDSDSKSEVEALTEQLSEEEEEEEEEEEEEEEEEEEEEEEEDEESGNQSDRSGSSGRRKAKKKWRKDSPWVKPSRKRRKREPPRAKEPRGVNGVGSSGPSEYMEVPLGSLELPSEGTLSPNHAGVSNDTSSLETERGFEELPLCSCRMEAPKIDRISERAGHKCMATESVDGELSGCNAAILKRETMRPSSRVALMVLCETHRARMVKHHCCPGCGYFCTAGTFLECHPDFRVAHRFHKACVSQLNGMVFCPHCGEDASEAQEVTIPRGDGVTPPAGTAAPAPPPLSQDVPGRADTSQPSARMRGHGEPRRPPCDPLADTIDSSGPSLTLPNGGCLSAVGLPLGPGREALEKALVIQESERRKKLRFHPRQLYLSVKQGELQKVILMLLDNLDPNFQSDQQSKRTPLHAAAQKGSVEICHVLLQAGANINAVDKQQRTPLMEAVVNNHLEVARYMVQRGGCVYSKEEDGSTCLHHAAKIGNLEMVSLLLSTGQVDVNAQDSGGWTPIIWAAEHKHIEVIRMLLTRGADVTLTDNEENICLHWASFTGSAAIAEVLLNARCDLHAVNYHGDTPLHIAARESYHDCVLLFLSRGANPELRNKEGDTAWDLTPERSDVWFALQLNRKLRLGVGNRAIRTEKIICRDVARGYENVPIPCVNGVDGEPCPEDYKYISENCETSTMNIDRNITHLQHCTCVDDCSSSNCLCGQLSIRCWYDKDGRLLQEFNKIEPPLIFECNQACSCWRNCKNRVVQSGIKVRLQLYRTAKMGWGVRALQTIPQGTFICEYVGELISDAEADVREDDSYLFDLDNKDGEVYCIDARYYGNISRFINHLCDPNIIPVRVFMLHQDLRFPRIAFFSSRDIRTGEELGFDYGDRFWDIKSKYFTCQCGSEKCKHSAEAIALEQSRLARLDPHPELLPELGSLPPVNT
# Test: MDA-MB-231 H3K9me2 in-cell Western assay (EHMT2 ICW)
# Format: cell-based
# Conditions: Table VI; read-out: EHMT2 ICW IC50
# Outline: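 Steps: compound added to plate, MDA-MB-231 cells plated in RPMI with 10% FBS, incubation for 48 h at 37 °C, fixation, overnight anti-H3K9me2 staining at 4 °C, and donkey anti-mouse 800CW with DRAQ5 counterstain. IC50 values come from percent inhibition fitted with a four-parameter model.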
row,IC50 [nM],Compound
1,1000 to 10000,CNc1cc(C)nc(Nc2ccc(OC)c(OC[C@H](O)CN3CC(F)C3)c2)n1 [Compound 986]
2,100 to 1000,CNc1cc(C)nc(Nc2ccc(OC)c(CNCCN(C)C)c2)n1 [Compound 990]
3,1000 to 10000,CNc1ccnc(Nc2ccc(OC)c(OCC(C)(O)CN3CCC3)c2)n1 (stereo not shown) [Compound 1005]
4,100 to 1000,CCN1CCC(O)(COc2cc(Nc3nccc(NC)n3)ccc2OC)C1 (stereo not shown) [Compound 1006]
5,> 10000,CCN1CCC(O)(COc2cc(Nc3nccc(NC)n3)ccc2OC)C1 (stereo not shown) [Compound 1007]
6,100 to 1000,CNc1ccnc(Nc2ccc(OC)c(OCC(C)CN3CCC3)c2)n1 (stereo not shown) [Compound 1008]
7,1000 to 10000,CNCC(C)COc1cc(Nc2nccc(NC)n2)ccc1OC (stereo not shown) [Compound 1009]
8,1000 to 10000,CNCCC(C)Oc1cc(Nc2nccc(NC)n2)ccc1OC (stereo not shown) [Compound 1011]
9,1000 to 10000,CNc1ccnc(Nc2ccc(OC)c(OCCC(C)N3CCC3)c2)n1 (stereo not shown) [Compound 1014]
10,1000 to 10000,CNc1ccnc(Nc2ccc(OC)c(OCCC(C)NC)c2)n1 (stereo not shown) [Compound 1016]
